Common to all, as to type: cell-based
Experiment [1] relates to MCL-1-addicted cancer cell-line, H82. The experiment can be described thus: apoptosis induction in MCL-1-addicted cancer cell line H82. The note with it: H82 cells.
Experiment [2] deals with MCL-1-addicted cancer cell-line, H23. Put plainly: apoptosis induction in MCL-1-addicted cancer cell line H23. The note with it: H23 cells.
The test system of experiment [3] is DMS53, SW1417, and H82 cell lines. Put plainly: selective apoptotic induction in cell lines addicted to BCL-2, BCL-XL or MCL-1. The note with it: MCL-1 addicted cancer cell line (H82) over BCL-2 (DMS53) or BCL-XL (SW1417) addicted cancer cell lines; FIG. 2B.
Where [4] appears, read: 1 µM of compound, FIG. 1B legend.

For `CCOC(=O)c1c(C)oc2cc(Br)c(NS(=O)(=O)c3ccc(OC)cc3)cc12` [Compound 1], the apoptosis induction result in experiment [1] (1 μM of compound, FIG. 1B) is recorded as “robust apoptosis”; in experiment [1] (setting [4]), “robust apoptosis”; in experiment [2] (1 μM of compound, FIG. 1B), “robust apoptosis”; in experiment [2] (setting [4]) it was “robust apoptosis”. In experiment [3], the “selectivity of apoptosis induction” value is on record as “selectively induce apoptosis”.

(Values after patent US11098021B2, “Phenylsulfonamido-benzofuran derivatives and uses thereof in the treatment of proliferative diseases” (Memorial Sloan-Kettering Cancer Center, priority 2015, dated 2021).)
